This is an account of results in patent US6809233B2, “DNA sequences for an amino acid transporter plasmids, bacteria, yeasts and plants containing a transporter and their use” (Hoechst Schering AgrEvo GmbH, priority 1992, dated 2004).

The target of the test is T1, amino acid transporter (PPP1-20, SEQ ID No. 1) in 22574d::PPP1-20 yeast strain (Arabidopsis thaliana, UniProt Q42400).
T1 construct: expressed in transfected cells; host or cells: Saccharomyces cerevisiae strain 22574d transformed with pFL61-ppp1-20
T1 sequence (Q42400 1-485): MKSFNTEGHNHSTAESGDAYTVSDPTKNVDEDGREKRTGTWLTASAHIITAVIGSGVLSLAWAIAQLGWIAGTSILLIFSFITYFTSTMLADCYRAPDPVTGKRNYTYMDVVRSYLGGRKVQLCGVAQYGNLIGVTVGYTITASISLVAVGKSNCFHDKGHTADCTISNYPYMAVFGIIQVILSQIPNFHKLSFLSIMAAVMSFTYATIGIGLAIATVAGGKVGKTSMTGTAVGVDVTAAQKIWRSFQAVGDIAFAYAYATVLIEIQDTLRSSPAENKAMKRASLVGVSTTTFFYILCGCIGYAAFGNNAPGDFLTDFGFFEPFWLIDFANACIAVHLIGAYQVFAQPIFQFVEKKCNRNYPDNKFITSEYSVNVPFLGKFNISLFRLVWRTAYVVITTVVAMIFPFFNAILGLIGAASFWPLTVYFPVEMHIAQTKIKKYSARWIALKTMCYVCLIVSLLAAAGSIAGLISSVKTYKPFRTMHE
The test is described as follows: Competition of 14C-L-proline uptake by excess of amino acids and analogues in 22574d::PPP1-20 yeast strain. In kind it is cell-based. The procedure: After centrifuging the culture, the cells are washed and taken up in 100 mm tris/HCl pH 4.5, 2 mM MgCl2 and 0.6M sorbitol. Around 100 μL of the suspension was added to a solution of 0.5 mM L-proline plus 1 μCi ^14C labeled L-proline in 100 μL of the same buffer. The uptake of the labeled amino acid was measured by the process described by Cirillo (1989, Meth Enzymol 174: 617-622). The uptake of the labeled amino acid was compared, on the one hand, in co-incubation with protein modifying substance diethyl pyrocarbonate which is an inhibitor of the amino acid transport in membrane vesicles from Beta vulgaris, and, on the other hand, in co-incubation with other protein modifying substances. A competition experiment in which the specificity of the transporter could be read off with various amino acids and analogues is shown in Table II for PPP1-20 and in FIG. 4 for AAP2. An analogous experiment in which a competition for histidine uptake in the line JT16::AAP2 was tested is described in Example 5.

Turning to `O=C(O)[C@H]1NCC(O)C1O` (some centres unmarked) [3,4-di-OH proline], the “% remaining transport activity” value runs as follows: (1 x excess of competitor) 86%; (10 x excess of competitor) 49%.
